Laboratory results: US20260035750A1, “TRANSCRIPTIONAL REGULATORS OF THE TEAD FAMILY” (Sanofi, priority 2022, published 2026)
Entries after “also recorded” stand apart in the source; their conditions may differ.

Tests used:
NCI-H226 cells = assay: In vivo efficacy in subcutaneous NCI-H226 xenografts in SCID mice; details: NCI-H226 xenograft
Procedure: Female CB17/Icr-Prkdc^scid/IcrIcoCrl mice (6-8 weeks old) were bred at Charles River (Les Oncins, France), housed in Sanofi AAALAC accredited animal facilities, and were provided with irradiated food and filtered water ad libitum.
(§1) In vivo efficacy studies of the K-975 compound were performed in SCID mice inoculated subcutaneously into the right flank with 3×10^6 MSTO-211H or NCI-H226 cells. Mice bearing around 200 mm3 subcutaneous MSTO-211H tumors or 150 mm3 subcutaneous NCI-H226 tumors were randomly assigned to […] of 8 mice/group and treated with either vehicle or K-975 compound twice daily at 30, 100, and 200 mg/kg for 18 consecutive days. Tumor perpendicular diameters were measured twice a week with a caliper, and tumor volume (V) was calculated according to the following equation: V (mm3)=(d2 (mm2)×D (mm))/2, where d is the smallest, and D the largest perpendicular tumor diameters.
The same type of events was observed when SCID mice implanted with malignant mesothelioma parental NCI-H226 cells were treated with 200 mg/kg BID of the benchmark TEAD-inhibitor K-975 (Kaneda A et al. Am J Cancer Res. 2020; 10(12):4399-4415) for 17 consecutive days (FIG. 5). […] The TEAD-500 score correlates, therefore, with tumor behavior under treatment and can be used as a marker of the pharmacodynamics or efficacy of a drug.

TEAD = assay: TEAD-500 score (TEAD-dependent transcription) in NCI-H226 cells grown in vitro; type: cell-based, human; details: NCI-H226 malignant mesothelioma cells in vitro, treated for 24 hours
Source text: (§2) TEAD-dependent transcription was scored in single samples as the difference Rp-Rn, where Rp is the mean fractional rank of the positive TEAD-effectors, and Rn, that of the negative effectors.
We considered the most abundant transcript of a gene as the representative of the expression of the gene. We, therefore, retain the expression level of the major transcript (maximum level-value per gene and sample, level values may be expression-array signals, RNA sequencing counts, fragments per kilobase per million counts (FPKM), transcripts per million (TPM), or whatever other metric is conveniently used) and discarded the values of all other transcripts. The maximum expression levels of the genes were transformed into fractional ranks by dividing with the maximum expression value of all genes (most abundant gene) observed within a sample. No other normalization is required.
All cell lines were grown at 37° C. under five percent CO2. MSTO-211H (#CRL-2081), NCI-H226 (#CRL-5826), NCI-H2052 (#CRL-5915), NCI-H28 (#CRL-5820), and HCT116 (#CCL-247) were purchased from the American Type Culture Collection (ATCC, Manassas, VA, USA) and cultured according to supplier's recommendation. […]
Fresh tumors were preserved in RNAlater (Thermo Fisher) and frozen at […]. […] The RNA concentration and purity were evaluated with an ND-1000 spectrophotometer (NanoDrop, Thermo Fisher). […]

[1] = system: TEAD-dependent transcription; assay: TEAD-500 score as pharmacodynamic marker in NCI-H226 xenograft tumors; type: in vivo; details: SCID mice, 200 mg/kg BID, in 24 h, sufficient for tumor regression
Procedure: as §2, §1
Fresh tumors were preserved in RNAlater (Thermo Fisher) and frozen at […]. Copurification of miRNA and total RNA was performed using a miRNeasy Mini Kit (QIAGEN, 217004). The RNA concentration and purity were evaluated with an ND-1000 spectrophotometer (NanoDrop, Thermo Fisher). Quality metrics are the RNA Integrity Number (RIN) and DV200 value (% of RNA fragments with a length≥200 nt). 100 ng total RNA per sample was used as input material for the library preparation. […]

CYR61 = CYR61 (CCN1) marker of TEAD activity, RNA and protein (ELISA) level, in NCI-H226 cells; type: cell-based, human; details: NCI-H226 cells in vitro, treated for 24 hours
Procedure: The latter protein markers were measured by ELISA assays. Cell lysates were diluted 1/500 in cell lysis buffer. A minimum of four biologic replicates were analyzed for each model. In the reading plate, standards and samples are run in duplicate. hCYR61 was assessed using the human Cyr61 Quantikine™ Colorimetric Sandwich ELISA Kit (R&D Systems, Minneapolis, MN). Diluted lysates were processed and analyzed as described in the manufacturer's instructions. Absorbance values were read using a microplate reader set to 450 nm.
So did the RNA and protein levels of the classical secreted marker of Hippo pathway activity, CYR61 (FIG. 3C).

SMILES: C=CC(=O)Nc1ccc(C)c(Oc2ccc(Cl)cc2)c1 [K-975]
- tumor behavior under treatment (NCI-H226 cells; 30 mg/kg BID): inactive
- tumor behavior under treatment (NCI-H226 cells; 100 mg/kg BID): almost tumor stasis
- ΔT/ΔC (NCI-H226 cells; 100 mg/kg BID): 12
- tumor behavior under treatment (NCI-H226 cells; 200 mg/kg BID, 17 consecutive days): tumor regression
- TEAD-500 score (TEAD): Dose-dependent regression; also recorded: regressed in a dose-dependent manner
- inhibition of the TEAD-dependent transcription (TEAD-500 score) [1]: 30-40%
- RNA level of CYR61 (CCN1) (CYR61): inhibition; also recorded: regressed in a dose-dependent manner
- protein level of CYR61 (CCN1) (CYR61): inhibition; also recorded: regressed in a dose-dependent manner
